Test results taken from patent US20100152261A1 (MITSUBISHI TANABE PHARMA CORPORATION, priority 2005, published 2010).
Where two headings read alike, the source gives them in different places.

Legend:
[1] = system: Bronchoconstriction in Guinea Pigs (induced with acetylcholine); experiment: Effect on bronchoconstriction in guinea pigs (via inhalation administration), Konzett method; assay type: in vivo; settings: guinea pig, intratracheal administration 10 μL g/head, 24 hours after administration, acetylcholine 4 μg/kg i.v., versus control group; for inhibition in vivo at 0.01 mg: Cavia porcellus, iv, read-out: Percent of inhibition of bronchoconstriction (%)
Experimental: Effect on Bronchoconstriction in Guinea Pigs (Via Inhalation Administration)
The test was performed according to the method of Konzett et al. (Arch. Exp. Path Pharmak., 1940, 195, 71-74). Male Hartley guinea pigs (350 to 600 g) were anesthetized with urethane (1.8 g/kg, i.p.), and then a cannula for drug administration was inserted into each left jugular vein. After the immobilization with decamethonium (2 mg/kg, i.v.), a tracheal cannula was inserted, and controlled respiration was attained by a respirator (Harvard). Bronchoconstriction was measured as changes of airway pressure with a pressure transducer (Nihon Kohden Corp.). Each test compound was administered (10 μL g/head) from dissected trachea by using a device for intratracheal administration of liquid for guinea pigs (Penn Century), and after suture, the animals were returned to usual breeding. After 24 hours, acetylcholine (4 μg/kg, i.v.) was administered to induce bronchoconstriction, and inhibitory activity on bronchoconstriction was calculated as percent inhibition comparing to the change of airway pressure in control group was obtained.

[2] = biological target: T1, muscarinic M3 receptor (Cavia porcellus, UniProt H0W1Z3); experiment: Muscarinic M3 antagonistic action in isolated guinea pig trachea (carbachol-induced contraction, Schild method); assay type: cell-based; settings: compound applied 15 minutes before carbachol
T1 construct: trachea was excised, and cut at every two tracheal cartilages to prepare tissue specimens; from tissue; host or cells: isolated guinea pig trachea (male Hartley)
T1 sequence (H0W1Z3 1-590): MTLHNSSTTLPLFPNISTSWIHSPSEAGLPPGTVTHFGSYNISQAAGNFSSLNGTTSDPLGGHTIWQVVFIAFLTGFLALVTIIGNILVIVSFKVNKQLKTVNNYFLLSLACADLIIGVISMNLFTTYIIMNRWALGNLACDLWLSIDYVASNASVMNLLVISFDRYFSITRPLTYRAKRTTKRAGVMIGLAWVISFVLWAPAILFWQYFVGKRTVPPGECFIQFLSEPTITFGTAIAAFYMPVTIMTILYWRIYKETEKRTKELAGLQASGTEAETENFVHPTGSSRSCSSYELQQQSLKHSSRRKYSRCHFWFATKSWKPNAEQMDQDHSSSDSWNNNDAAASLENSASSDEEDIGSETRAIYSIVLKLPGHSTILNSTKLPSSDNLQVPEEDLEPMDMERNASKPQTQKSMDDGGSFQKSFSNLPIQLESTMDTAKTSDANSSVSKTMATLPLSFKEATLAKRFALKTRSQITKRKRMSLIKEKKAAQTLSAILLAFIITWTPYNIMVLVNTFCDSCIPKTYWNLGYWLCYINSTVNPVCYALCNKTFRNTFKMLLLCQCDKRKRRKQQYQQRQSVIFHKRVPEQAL
Experimental: Muscarinic M3 Antagonistic Action in Isolated Guinea Pig Trachea
Male Hartley guinea pigs (350 to 600 g) were sacrificed by bleeding, and trachea was excised, and cut at every two tracheal cartilages to prepare tissue specimens. Each tissue specimen was kept warm at 37° C., suspended with a resting tension of 1 g in a 5-mL Magnus bath filled with a Krebs carbonate buffer containing indomethacin (1 μM) bubbled with 95% O2/5% CO2, and left for 60 minutes as a stabilization period. […] After the measurement, the tissue specimen was immediately washed, and left for 60 minutes as a stabilization period before the next contraction reaction, and the tissue specimen of which EC50 for the carbachol-induced contraction reaction was stabilized was considered as a control. Each test compound was applied 15 minutes before the addition of carbachol. The affinity (pA2) of the test compound was obtained by the Schild method (Arunlakshana, O. and Schild, H. O., Brit. J. Pharmacol., 1959, 14, 48-58).

[3] = biological target: T2, muscarinic M2 receptor (Cavia porcellus, UniProt H0VRN8); experiment: Muscarinic M2 antagonistic action in isolated guinea pig left atrium (carbachol-induced relaxation, Schild method); assay type: cell-based; settings: compound applied 30 minutes before carbachol
T2 construct: left atria were excised to prepare tissue specimens; from tissue; host or cells: isolated guinea pig left atrium (male Hartley)
T2 sequence (H0VRN8 1-466): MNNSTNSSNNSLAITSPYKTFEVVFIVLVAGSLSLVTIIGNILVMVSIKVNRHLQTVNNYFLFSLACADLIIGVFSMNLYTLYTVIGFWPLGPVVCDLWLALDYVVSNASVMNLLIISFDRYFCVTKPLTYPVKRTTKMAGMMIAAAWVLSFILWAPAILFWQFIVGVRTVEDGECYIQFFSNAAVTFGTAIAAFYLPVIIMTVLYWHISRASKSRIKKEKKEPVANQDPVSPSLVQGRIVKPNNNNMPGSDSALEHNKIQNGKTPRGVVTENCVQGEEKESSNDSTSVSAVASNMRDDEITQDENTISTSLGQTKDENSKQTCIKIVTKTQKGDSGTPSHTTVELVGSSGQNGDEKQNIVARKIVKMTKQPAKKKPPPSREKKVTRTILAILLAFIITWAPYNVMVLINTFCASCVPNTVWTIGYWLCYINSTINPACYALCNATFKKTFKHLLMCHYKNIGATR
Experimental: Muscarinic M2 Antagonistic Action in Isolated Guinea Pig Left Atrium […] Each tissue specimen was kept warm at 37° C., suspended with a resting tension of 0.5 g in a 5-mL Magnus bath filled with a Krebs carbonate buffer bubbled with 95% O2/5% CO2. Then, contraction evoked by field electrical stimulation (4 Hz, 2 msec, 1.5×threshold potential) was measured. After a stabilization period of 60 minutes, carbachol-induced relaxation was isometrically measured and recorded by the cumulative method from 10^−8 M with an interval of 90 seconds for one concentration in an equal ratio of 3. After the measurement, the tissue specimen was immediately washed, and left for 45 minutes as a stabilization period before the next observation. The tissue specimen of which EC50 for the carbachol-induced relaxation was stabilized was considered as a control. Each test compound was applied 30 minutes before the addition of carbachol. The affinity (pA2) of the test compound was obtained in the same manner as in the case of the trachea.

[4] = isolated guinea pig trachea, read-out: pA2 Trachea M3 (converted)
[5] = isolated guinea pig left atrium, read-out: pA2 Left atrium M2 (converted)
[6] = pA2 Trachea M3, isolated guinea pig trachea
[7] = pA2 Left atrium M2, isolated guinea pig left atrium
[8] = isolated guinea pig left atrium

Question: For `Cc1n([C@H]2CC[C@@H](C(C(N)=O)(c3ccccc3)c3ccccc3)C2)cc[n+]1CC1CC1` (relative stereo) [Example 30, 3-(cis-3-(Carbamoyl(diphenyl)methyl)cyclopentyl)-1-cyclopropylmethyl-2-methyl-3H-imidazol-1-ium bromide], which inhibition in vivo at 0.01 mg [1] is on record?
Answer: 80%

Question: Which results are given for `CC1=NCCN1[C@@H]1CC[C@H](C(C(N)=O)(c2ccccc2)c2ccccc2)C1` (relative stereo) [Reference Example 13, 2-(cis-3-(2-Methyl-4,5-dihydroimidazol-1-yl)cyclopentyl)-2,2-diphenylacetamide, reference compound]?
Answer: Kb [2, 4]: 5.01 nM; Kb [3, 5]: 79.4 nM; inhibition in vivo at 0.01 mg [1]: 20%

Question: Which results are given for `Cc1n([C@H]2CC[C@@H](C(C(N)=O)(c3ccccc3)c3ccccc3)C2)cc[n+]1Cc1ccccc1` [Example 83, 3-((1S,3R)-3-(Carbamoyl(diphenyl)methyl)cyclopentyl)-1-benzyl-2-methyl-3H-imidazol-1-ium bromide]?
Answer: Kb [2, 4]: 0.0794 nM; Kb [3, 5]: 5.01 nM; inhibition in vivo at 0.01 mg [1]: 100%

Question: What does the source list for `CC(=O)C[n+]1ccn([C@@H]2CC[C@H](C(C(N)=O)(c3ccccc3)c3ccccc3)C2)c1C` [Example 90, 3-((1R,3S)-3-(Carbamoyl(diphenyl)methyl)cyclopentyl)-2-methyl-1-(2-oxopropyl)-3H-imidazol-1-ium bromide]?
Answer: Kb [2, 6]: 0.794 nM; Kb [3, 7]: 316 nM; inhibition in vivo at 0.01 mg [1]: 100%

Question: With `Cc1n([C@H]2CC[C@@H](C(C(N)=O)(c3ccccc3)c3ccccc3)C2)cc[n+]1CC[C@H]1CO1.[Br-]` (relative stereo) [Example 36, 3-(cis-3-(Carbamoyl(diphenyl)methyl)cyclopentyl)-2-methyl-1-(2-(S)-oxiranyl-ethyl)-3H-imidazo-1-ium bromide] as the molecule, how does the “pA2 Trachea M3” value ([2]; isolated guinea pig trachea) read?
Answer: 9

Question: And the “pA2 Left atrium M2” value [3, 8]?
Answer: 7.7

Question: And the “Percent of inhibition of bronchoconstriction (%)” value [1]?
Answer: 90%

Question: For `COCC[n+]1ccn([C@H]2CC[C@@H](C(C(N)=O)(c3ccccc3)c3ccccc3)C2)c1C` (relative stereo) [Example 26, 3-(cis-3-(Carbamoyl(diphenyl)methyl)cyclopentyl)-1-(2-methoxy-ethyl)-2-methyl-3H-imidazol-1-ium bromide], which Kb [2, 6] is on record?
Answer: 0.2 nM

Question: What about the Kb [3, 7] of the same molecule?
Answer: 12.6 nM

Question: What about the inhibition in vivo at 0.01 mg [1] of the same molecule?
Answer: 70%

Question: Which results are given for `Cc1n(Cc2ccc(F)cc2)cc[n+]1[C@H]1CC[C@@H](C(C(N)=O)(c2ccccc2)c2ccccc2)C1.[Br-]` (relative stereo) [Example 7, 3-(cis-3-(Carbamoyl(diphenyl)methyl)cyclopentyl)-1-(4-fluoro-benzyl)-2-methyl-1-3H-imidazol-1-ium bromide]?
Answer: pA2 Trachea M3 ([2]; isolated guinea pig trachea): 9.6; pA2 Left atrium M2 [3, 8]: 8.5; Percent of inhibition of bronchoconstriction (%) [1]: 90%

Question: Which Kb [2, 6] does the source give for `C[n+]1ccn([C@H]2CC[C@H](C(C(N)=O)(c3ccccc3)c3ccccc3)C2)c1` (relative stereo) [Example 59, 3-(trans-3-(Carbamoyl(diphenyl)methyl)cyclopentyl)-1-methyl-3H-imidazol-1-ium iodide] here?
Answer: 0.794 nM

Question: And the Kb [3, 7]?
Answer: 20 nM

Question: And the inhibition in vivo at 0.01 mg [1]?
Answer: 90%

Question: With `Cc1n(CC2CO2)cc[n+]1[C@H]1CC[C@@H](C(C(N)=O)(c2ccccc2)c2ccccc2)C1.[Br-]` (relative stereo) [Example 22] as the molecule, how does the “pA2 Trachea M3” value ([2]; isolated guinea pig trachea) read?
Answer: 9

Question: What about the “pA2 Left atrium M2” value [3, 8] of the same molecule?
Answer: 7.7

Question: What about the “Percent of inhibition of bronchoconstriction (%)” value [1] of the same molecule?
Answer: 80%

Question: Which results are given for `Cc1nccn1[C@@H]1CC[C@H](C(C(N)=O)(c2ccccc2)c2ccccc2)C1` (relative stereo) [Reference Example 5, 2-(cis-3-(2-Methylimidazol-1-yl)cyclopentyl)-2,2-diphenylacetamide, reference compound]?
Answer: Kb [2, 4]: 0.794 nM; Kb [3, 5]: 50.1 nM; inhibition in vivo at 0.01 mg [1]: 0%

Question: For `Cc1n([C@H]2CC[C@@H](C(C(N)=O)(c3ccccc3)c3ccccc3)C2)cc[n+]1C(F)F` (relative stereo) [Example 37, 3-(cis-3-(Carbamoyl(diphenyl)methyl)cyclopentyl)-1-difluoromethyl-2-methyl-3H-imidazol-1-ium bromide], which Kb [2, 6] is on record?
Answer: 0.794 nM

Question: What about the inhibition in vivo at 0.01 mg [1] of the same molecule?
Answer: 80%

Question: What does the source list for `Cc1cccc(C[n+]2ccn([C@H]3CC[C@@H](C(C(N)=O)(c4ccccc4)c4ccccc4)C3)c2C)c1` (relative stereo) [Example 8, 3-(cis-3-(Carbamoyl(diphenyl)methyl)cyclopentyl)-2-methyl-1-(3-methyl-benzyl)-3H-imidazol-1-ium bromide]?
Answer: Kb [2, 6]: 0.316 nM; Kb [3, 7]: 10 nM; inhibition in vivo at 0.01 mg [1]: 90%

Question: How did the Kb [2, 6] turn out when `Cc1n([C@H]2CC[C@@H](C(C(N)=O)(c3ccccc3)c3ccccc3)C2)cc[n+]1CC1CCC1` (relative stereo) [Example 40, 3-(cis-3-(Carbamoyl(diphenyl)methyl)cyclopentyl)-1-cyclobutylmethyl-2-methyl-3H-imidazol-1-ium bromide] was run?
Answer: 0.398 nM

Question: And the Kb [3, 7]?
Answer: 7.94 nM

Question: What about the inhibition in vivo at 0.01 mg [1] of the same molecule?
Answer: 100%

Question: How did the Kb [2, 6] turn out when `Cc1n([C@H]2CC[C@H](C(C(N)=O)(c3ccccc3)c3ccccc3)C2)cc[n+]1Cc1ccccc1` (single isomer, unassigned) [Example 97, 1-Benzyl-3-(trans-3-(carbamoyl(diphenyl)methyl)cyclopentyl)-2-methyl-3H-imidazol-1-ium bromide] was run?
Answer: 0.1 nM

Question: And the Kb [3, 7]?
Answer: 3.98 nM

Question: What does the source list for `CC(=O)C[n+]1ccn([C@H]2CC[C@H](C(C(N)=O)(c3ccccc3)c3ccccc3)C2)c1C` (relative stereo) [Example 86, 3-(trans-3-(Carbamoyl(diphenyl)methyl)cyclopentyl)-2-methyl-1-(2-oxopropyl)-3H-imidazol-1-ium bromide]?
Answer: Kb [2, 6]: 1.26 nM; Kb [3, 7]: 1260 nM

Question: `Cc1n([C@H]2CC[C@H](C(C#N)(c3ccccc3)c3ccccc3)C2)cc[n+]1Cc1ccccc1` (relative stereo) [Example 87, 1-Benzyl-3-(trans-3-(cyano(diphenyl)methyl)cyclopentyl)-2-methyl-3H-imidazol-1-ium bromide] was tested. Which Kb [2, 6] did it give?
Answer: 1 nM

Question: What about the Kb [3, 7] of the same molecule?
Answer: 50.1 nM

Question: `Cc1n([C@@H]2CC[C@H](C(C(N)=O)(c3ccccc3)c3ccccc3)C2)cc[n+]1C(F)F` [Example 92, 3-((1R,3S)-3-(Carbamoyl(diphenyl)methyl)cyclopentyl)-1-difluoromethyl-2-methyl-3H-imidazol-1-ium bromide] was tested. Which Kb [2, 6] did it give?
Answer: 0.398 nM

Question: What about the Kb [3, 7] of the same molecule?
Answer: 12.6 nM

Question: What does the source list for `Cc1n([C@H]2CC[C@@H](C(C(N)=O)(c3ccccc3)c3ccccc3)C2)cc[n+]1CCC(C)C` [Example 79, 3-((1S,3R)-3-(Carbamoyl(diphenyl)methyl)cyclopentyl)-2-methyl-1-(3-methyl-butyl)-3H-imidazol-1-ium bromide]?
Answer: Kb [2, 6]: 0.631 nM; Kb [3, 7]: 63.1 nM

Question: What does the source list for `CC1=[N+](C)CCN1[C@H]1CC[C@@H](C(C(N)=O)(c2ccccc2)c2ccccc2)C1` [Example 58, 3-((1S,3R)-3-(Carbamoyl(diphenyl)methyl)cyclopentyl)-1,2-dimethyl-4,5-dihydro-3H-imidazol-1-ium iodide]?
Answer: Kb [2, 6]: 3.16 nM; Kb [3, 7]: 79.4 nM
